Patent US20100022639A1, “Methods of Inducing Weight Loss” (The Johns Hopkins University School of Medicine Licensing …, priority 2000, published 2010)

Columns and labels:
[1] = system: adipose fatty acid synthesis; assay: [U-14C]-acetate labeling of adipose tissue from C-75-treated mice; assay type: in vivo, BALB/c mice
Method: Female BALB/c mice were treated with 0.6 mg of C-75 in 200 μl RPMI, or vehicle control IP (3 per group). After 3 hours, the animals were killed and approximately 5 mg of adipose tissue was labeled with [U-^14C]-acetate, lipids were extracted and counted, [A. Rashid et al., Am. J. Pathol. 150 (1997)]. […] Values represent mean +/−SEM (*P<0.05).
Male BALB/c mice (4 per group) were given 2 g/kg dextrose by oral gavage. After 15 min mice were injected IP with 20 mg/kg C-75 or RPMI vehicle. One hour post-treatment, livers were rapidly removed, frozen and pulverized in liquid nitrogen, HC104 extracted and assayed for malonyl-CoA [J. D. McGarry, M. J. Stark, D. W. Foster., J. Biol. Chem 253, 8291 (1978)]. Intraperitoneal injection of mice with C-75 leads to a 95% reduction in ^14C-acetate incorporation into fatty acids and to a 110% increase in the level of hepatic malonyl-CoA, the principal substrate of FAS. Experiments described in panels B and C were repeated twice.

[2] = Body weight after a single IP injection; assay type: in vivo, BALB/c mice
Method: The effect of C-75 treatment on feeding behavior and body weight in mice is both rapid and dramatic. A single treatment leads to the loss of as much as 20% of total body weight within 24 hours (FIG. 1.2A). This weight loss occurs in a dose dependent manner and persists for a duration that increases with dose. In all cases, treated animals recover lost body weight after the effect of the drug has dissipated, arguing against induction of a persistent wasting.
Male BALB/c mice 19-22 g were weighed, treated by a single intra peritoneal (I.P.) injection and housed in metabolic cages. Body weight (FIG. 1.2A) and food intake (FIG. 1.2B) were monitored at 24 hour intervals.

[3] = system: 3T3-L1 adipocytes; assay: Cytoplasmic triglyceride accumulation in adipocytes in cell culture; assay type: cell-based; conditions: 3T3-L1 adipocytes in cell culture (not shown)
[4] = Weight loss of C-75-treated versus fasted mice; assay type: in vivo, BALB/c mice; conditions: 30 mg/kg, 24 hours, n=7
From the text: To determine whether the weight loss is attributable entirely to suppression of feeding, treatment with a dose of C-75 that completely suppresses feeding was compared with fasting. Both fasting and C-75 led to significant weight loss relative to control; however, in many experiments the C-75 treated mice lost more weight than did the fasted animals (FIG. 2A). The normal response to fasting is to reduce energy utilization to limit depletion of energy stores (Loftus, 1999). If C-75 treatment results in a “perceived fed state”, it may allow maintenance of a normal metabolic rate as well as inhibition of feeding.
Male BALB/c mice 19-21 g were preweighed and treated with vehicle or 30 mg/kg C-75 and allowed free access to food, or were denied all access to food (fasted). After 24 hours, mice were weighed. Change from initial body weight is shown in FIG. 2A, expressed as mean +/±SEM (n=7). C-75 treated mice lost 45% more weight than did the fasted animals.

[5] = system: leptin; assay: Serum leptin ELISA; assay type: in vivo, BALB/c mice; conditions: 30 mg/kg IP, 24 hours
From the text: One of the primary signals modulating NPY function in feeding control is leptin. This hormone is elevated in the fed state and inhibits NPY production and feeding (Schwartz, et al., 1996, Diabetes, 45:531) in a manner similar to that observed with C-75 treatment. Leptin was an attractive candidate as its primary site of production, white adipose tissue (Zhang, et al., 1994, Nature, 372:425), is a site of fatty acid synthesis and expresses high levels of FAS. To test for increased leptin release as the signal mediating C-75 regulation of NPY, serum leptin levels were assessed in fed (end of light cycle) fasted and C-75-treated mice. BALB/c mice treated with RPMI vehicle (o) or 30 mg/kg C-75 (▪) I.P. and free fed, or fasted ([…]) for 24 hours were weighed, decapitated and exsanguinated. Serum leptin levels were determined using a QUANTIKINE™ murine leptin ELISA (R&D Systems) and plotted against total body weight (FIG. 3A). […] This reduction correlates with the reduction in body weight, presumably body fat, resulting from C-75 treatment FIG. 3A). […] Northern blot analysis of leptin message levels in white adipose tissue from the same animals (performed as described above) supports this observation (data not shown).

[6] = system: liver and white adipose tissue; assay: Histology of liver and white adipose tissue of treated ob/ob mice; assay type: in vivo
From the text: C-75 treatment not only led to weight loss, but also corrected many of the pathological consequences that result from the extreme obesity of ob/ob mice. Liver samples from vehicle and C-75 treated mice (from FIG. 3B) were fixed in formalin and paraffin embedded. Tissue sections (4 μm) were stained with hematoxylin and eosin. […] The observation that C-75 acts through a leptin independent mechanism is particularly promising in that the majority of obese individuals appear to be relatively resistant to leptin's effects (Caro, et al., 1996, Lancet, 348:159).

[7] = system: feeding behavior; assay: Food intake after ICV injection of C-75; assay type: in vivo, mice; conditions: ICV 2 μl at 2.5 or 5 μg/μl, food intake over 2 and 4 hours
Method: This model predicts that feeding inhibition by FAS inhibitors should be attenuated by inhibitors of ACC's. To test this, mice were pretreated with the ACC inhibitor TOFA or vehicle by ICV injection and examined the ability of C-75, administered IP, to inhibit feeding. BALB/c mice were anesthetized with metofane and injected ICV with 2 μg of TOFA or DMSO vehicle. After 2 hours recovery, mice were injected IP with 15 mg C-75/kg or RPMI vehicle and monitored for total food intake over 2 hours. […] In addition, mice were anesthetized and injected ICV with 2 μl of RPMI or C-75 at 2.5 or 5 μg/μl and food intake monitored over 2 (shaded) and 4 (solid) hours. The efficacy of centrally administered TOFA argues for a central (CNS) mechanism of action. ICV administration of C-75 inhibited feeding by 82% (FIG. 5C), supporting the central target action of C-75. FIGS. 5(B) and (C) combine results from 3 experiments with N=3 for each (9 total).

C=C1C(=O)OC(CCCCCCCC)C1C(=O)O (centres unmarked) [C-75]
adipose fatty acid synthesis compared to vehicle control ([1]; 0.6 mg C-75 IP, 3 hours, female BALB/c mice): markedly inhibited | reduction in 14C-acetate incorporation into fatty acids ([1]; intraperitoneal injection): 95% | loss of total body weight after a single treatment ([2]; within 24 hours, single IP treatment, 7.5-30 mg/kg): ≤ 20% | loss of total body weight ([2]; within a 24 hour period, BALB/c mice): 10-20% | cytoplasmic triglyceride accumulation [3]: markedly reduces cytoplasmic triglyceride accumulation | more weight lost than fasted animals [4]: 45% | serum leptin levels [5]: reduction in leptin levels | liver histology (hepatomegaly and fatty liver) ([6]; 14 days treatment): marked reduction in the hepatomegaly and fatty liver | mean adipocyte size in white adipose tissue ([6]; 14 days treatment (not shown)): dramatic reduction in mean adipocyte size | histological abnormality from chronic treatment ([6]; liver and white adipose tissue): no evidence of histological abnormality | inhibition of feeding by ICV administration [7]: 82%
